Measurements: patent US6696495B2, “Treatment of disorders secondary to organic impairments” (Snowden Pharmaceuticals, LLC, priority 1998, dated 2004)
Like-named read-outs stand apart in the source and are kept apart here.

How the values were obtained:
[1] = system: Tourette's Tics, Asocial Behavior, and Relief of Hyposexuality; settings: for response to other medications: before sibutramine
[2] = system: Reflex Sympathetic Dystrophy Syndrome (RSDS); Complex Regional Pain Syndrome (CRPS); test: Case history 27; assay type: in vivo, human
[3] = system: Severe Atypical Psychosis; test: Case history 1, Sibutramine Patient No. 97; assay type: in vivo, human
[4] = system: Non-Tourette's tics, obsessive-compulsive rituals, and attention deficit hyperactive disorder (ADHD); settings: before sibutramine
[5] = system: Sexual Obsessive-Compulsive Behavior, ADD and Executive Function; test: Case history 6, Sibutramine Patient No. 77; assay type: in vivo, human; settings: before sibutramine
[6] = system: Sexual Function, ADD, and Rage Outbursts; test: Case history 3, Sibutramine Patient No. 100; assay type: in vivo, human
[7] = system: Severe Post-Traumatic Stress Reaction
Experimental: Finally, this patient was taken off of fluoxetine 20 mg when sibutramine treatment was initiated.

[8] = system: Asocial Behavior, Violence, and Hyposexuality; test: Case history 10, Sibutramine Patient No. 54; assay type: in vivo, human; settings: before sibutramine
[9] = system: Tourette's Disease Tics, Violence, and ADHD; test: Case history 8, Sibutramine Patient No. 47; assay type: in vivo, human
[10] = system: Sexual Gender Choice Change; test: Case history 7, Sibutramine Patient No. 99; assay type: in vivo, human
[11] = system: frontal lobe executive function, ADHD, and hyposexuality; settings: human, in vivo
Sexual Function and ADD = test: Case history 4, Sibutramine Patient No. 109; assay type: in vivo, human; settings: before sibutramine
[12] = system: Fibromyalgia—Chronic Fatigue Syndrome; settings: before sibutramine
[13] = mood swings, cognitive, anger, sexual problems, before sibutramine
[14] = over six years before sibutramine
[15] = depression, impulsive behaviors, mood swings, epileptic symptoms

CN1CCN(C2=Nc3cc(Cl)ccc3Nc3ccccc32)CC1 [Clozapine]
fall of IQ ([1]; human, in vivo): 30 points

CN(C)CCC=C1c2ccccc2CCc2ccccc21 [Elavil]
response to other treatments ([2]; before sibutramine): helped their sleep and slightly increased their appetite but did not affect the pain

NCC1(CC(=O)O)CCCCC1 [Neurontin]
response to other treatments ([2]; before sibutramine): ineffective

NC12CC3CC(CC(C3)C1)C2 [amantadine]
response of psychosis symptoms to other medications ([3]; treatments before sibutramine): without success

CC(N)Cc1ccccc1 (centres unmarked) [amphetamine]
response to other medications [4]: helped their hyperactivity and OCD symptoms in part

CC(NC(C)(C)C)C(=O)c1cccc(Cl)c1 (centres unmarked) [bupropion]
response to other medications [5]: unsuccessful | response to other medications [6, 13]: unsuccessful

O=C1CC2(CCCC2)CC(=O)N1CCCCN1CCN(c2ncccn2)CC1 [buspirone]
response of psychosis symptoms to other medications ([3]; treatments before sibutramine): without success | response of PTSD symptoms to other medications ([7]; human, in vivo): unsuccessful

OC(O)C(Cl)(Cl)Cl [chloral hydrate]
response to other medications [8]: without any changes in their speech or mode of communication

CN(C)CCCN1c2ccccc2CCc2ccc(Cl)cc21 [clomipramine]
response to other medications [9, 14]: without any good results | response to other medications [1]: without success

Clc1cccc(Cl)c1N=C1NCCN1 [clonidine]
response to other medications [9, 14]: without any good results

CNCCCN1c2ccccc2CCc2ccccc21 [desipramine]
response to other medications [9, 14]: without any good results | response to other medications [6, 13]: not helpful

CCN[C@@H](C)Cc1cccc(C(F)(F)F)c1 [dextrofenfluramine]
response to other medications [1]: without success

COc1cc2c(cc1OC)C(=O)C(CC1CCN(Cc3ccccc3)CC1)C2 (centres unmarked) [donepezil]
response to other medications [4]: unsuccessful | response to other medications [9, 14]: helped their cognitive problems without aggravating their tics or their outbursts | response to other medications [6, 13]: not helpful | response to other medications [10, 15]: refractory | response to other medications [1]: without success | response to other medications [11]: unsuccessful

NC(=O)OCC(COC(N)=O)c1ccccc1 [felbamate]
response to other medications [9, 14]: without any good results | response to other medications [1]: without success

CCNC(C)Cc1cccc(C(F)(F)F)c1 (centres unmarked) [fenfluramine]
response to other medications [8]: without any changes in their speech or mode of communication | response of PTSD symptoms to other medications ([7]; before sibutramine): unsuccessful | response to other medications [9, 14]: without any good results | response to other medications [6, 13]: not helpful | response to other medications [1]: without success

OCCN1CCN(CCCN2c3ccccc3Sc3ccc(C(F)(F)F)cc32)CC1 [fluphenazine]
response to other medications [1]: without success

COCCCC/C(=N\OCCN)c1ccc(C(F)(F)F)cc1 [fluvoxamine]
response to other medications [4]: helped their hyperactivity and OCD symptoms in part | response to other medications [1]: without success

O=C(CCCN1CCC(O)(c2ccc(Cl)cc2)CC1)c1ccc(F)cc1 [haloperidol]
response of psychosis symptoms to other medications ([3]; treatments before sibutramine): without success | response to other medications [8]: without any changes in their speech or mode of communication | response to other medications [5]: unsuccessful | response to other medications [1]: without success

OCCOCCN1CCN(C(c2ccccc2)c2ccc(Cl)cc2)CC1 (centres unmarked) [hydroxyzine]
response to other medications [9, 14]: without any good results

CN(C)CCCN1c2ccccc2CCc2ccccc21 [imipramine]
response to other medications [6, 13]: unsuccessful | response to other medications [10, 15]: refractory

Nc1nnc(-c2cccc(Cl)c2Cl)c(N)n1 [lamotrigine]
response to other medications (Sexual Function and ADD): unsuccessful | response to other medications [4]: without success | response to other medications [9, 14]: without any good results | response to other medications [6, 13]: not helpful | response to other medications [1]: without success | response to other medications [11]: unsuccessful

CCN(CC)CC(=O)Nc1c(C)cccc1C [lidocaine]
response to other treatments ([2]; in vivo): numbed the area

O=C([O-])[O-].[Li+].[Li+] [lithium carbonate]
response to other medications ([6]; human, in vivo): unsuccessful and made their obesity worse | response to other medications ([10]; human, in vivo): refractory

O=C1Nc2ccc(Cl)cc2C(c2ccccc2Cl)=NC1O (centres unmarked) [lorazepam]
response of psychosis symptoms to other medications ([3]; treatments before sibutramine): without success

COc1ccc2cc(CCC(C)=O)ccc2c1 [nabumetone]
response to other medications [12]: unsuccessfully

CC(C)(C)NCC(O)COc1cccc2c1CC(O)C(O)C2 (centres unmarked) [nadolol]
response to other medications [8]: without any changes in their speech or mode of communication

CNCCC=C1c2ccccc2CCc2ccccc21 [nortriptyline]
response to other medications ([6]; human, in vivo): unsuccessful

O=C(O)CCc1nc(-c2ccccc2)c(-c2ccccc2)o1 [oxaprozin]
response to other medications [12]: unsuccessfully

NC(=O)N1c2ccccc2CC(=O)c2ccccc21 [oxcarbazepine]
response of PTSD symptoms to other medications ([7]; before sibutramine): unsuccessful

Fc1ccc([C@@H]2CCNC[C@H]2COc2ccc3c(c2)OCO3)cc1 [paroxetine]
response of psychosis symptoms to other medications ([3]; treatments before sibutramine): without success

NC1=NC(=O)C(c2ccccc2)O1 (centres unmarked) [pemoline]
response of PTSD symptoms to other medications ([7]; before sibutramine): unsuccessful

CC(C)(N)Cc1ccccc1 [phenteramine]
response to other medications [6, 13]: helped them lose a small amount of weight but did not affect their other problems

O=C1NC(=O)C(c2ccccc2)(c2ccccc2)N1 [phenytoin]
response of PTSD symptoms to other medications ([7]; before sibutramine): unsuccessful | response to other medications [9, 14]: without any good results

CC(C)NCC(O)COc1cccc2ccccc12 (centres unmarked) [propranolol]
response to other medications (Sexual Function and ADD): unsuccessful | response to other medications [8]: without any changes in their speech or mode of communication | response to other medications [9, 14]: without any good results

OCCOCCN1CCN(C2=Nc3ccccc3Sc3ccccc32)CC1 [quetiapine]
response of psychosis symptoms to other medications ([3]; treatments before sibutramine): did not control their symptoms | response to other medications [8]: without any changes in their speech or mode of communication | response to other medications [9, 14]: without any good results

Cc1nc2n(c(=O)c1CCN1CCC(c3noc4cc(F)ccc34)CC1)CCCC2 [risperidone]
response of psychosis symptoms to other medications ([3]; human, in vivo): without success | response to other medications ([9]; human, in vivo): without any good results

CCCN(CCC)CCc1cccc2c1CC(=O)N2 [ropinirole]
response to other medications [4]: unsuccessful

C#CCN(C)[C@H](C)Cc1ccccc1 [selegiline]
response to other medications [9, 14]: without any good results | response to other medications [6, 13]: not helpful | response to other medications [1]: without success | response to other medications [11]: unsuccessful

CN[C@H]1CC[C@@H](c2ccc(Cl)c(Cl)c2)c2ccccc21 [sertraline]
response to other medications [10, 15]: refractory

CCCc1nn(C)c2c(=O)[nH]c(-c3cc(S(=O)(=O)N4CCN(C)CC4)ccc3OCC)nc12 [sildenafil]
response to other medications (Sexual Function and ADD): only increased sexual function but not libido | response to other medications [6, 13]: did not help their sexual libido | response to other medications [11]: helped correct the mechanical dysfunction but not the libido

Nc1c2c(nc3ccccc13)CCCC2 [tacrine]
response to other medications [9, 14]: without any good results | response to other medications [1]: without success

CSc1ccc2c(c1)N(CCC1CCCCN1C)c1ccccc1S2 (centres unmarked) [thioridazine]
response to other medications [8]: without any changes in their speech or mode of communication

N[C@@H](Cc1cc(I)c(Oc2cc(I)c(O)c(I)c2)c(I)c1)C(=O)O [thyroxine]
response to other medications [6, 13]: not helpful

COc1cccc(C2(O)CCCCC2CN(C)C)c1 (centres unmarked) [tramadol]
response to other medications [12]: unsuccessfully

CN1CCN(CCCN2c3ccccc3Sc3ccc(C(F)(F)F)cc32)CC1 [trifluoperazine]
response of psychosis symptoms to other medications ([3]; treatments before sibutramine): without success

COC(=O)[C@@H]1[C@H]2C[C@H]3c4[nH]c5ccccc5c4CCN3C[C@@H]2CC[C@@H]1O [yohimbine]
response to other medications (Sexual Function and ADD): unsuccessful
